Experimental data as given in ChEMBL document CHEMBL3507680, “University of Dundee, Gates Library screen for HepG2 cell viability”.

Assay: Human HepG2 cell viability assay in 384 well format
Assay type: toxicity, cell-based
Parameters: dose 125 nL, time 70.5 hour; concentration not given beside the values
Settings: HepG2 cells, read-out: Inhibition

## O=C(CCC(=O)Nc1nnc(C2CCCCC2)s1)NCC1CCCO1 (centres undefined)
  cytotoxicity at 70.5 h: -12.1%

## Cc1cccc(NC(=O)C2CC(=O)n3cnnc3S2)c1 (centres undefined)
  cytotoxicity at 70.5 h: -0.584%

## CN(CC(=O)N1CCc2[nH]c3ccc(F)cc3c2C1)CC1OCCO1
  cytotoxicity at 70.5 h: 3.34%

## CCSc1nnc(N(CCC#N)CCC#N)s1
  cytotoxicity at 70.5 h: 1.21%

## Cc1ccc(C)c(CSc2nnc([C@@H](N)C(C)C)o2)c1
  cytotoxicity at 70.5 h: -0.583%

## COC(=O)COn1c(SC(C)C)nc2ccccc2c1=O
  cytotoxicity at 70.5 h: -3.63%

## Cn1c2ccc(F)cc2c2ncn(CCCN(CCO)CCO)c(=O)c21
  cytotoxicity at 70.5 h: 18.9%

## CSc1nnc(N(CCC#N)CCC#N)s1
  cytotoxicity at 70.5 h: 6.15%

## COc1cc(C2CC(=O)Oc3cc(C)[nH]c(=O)c32)ccc1O (centres undefined)
  cytotoxicity at 70.5 h: -18.3%

## COc1cc(OC)c(C2CC(=O)Oc3cc(C)[nH]c(=O)c32)c(OC)c1 (centres undefined)
  cytotoxicity at 70.5 h: -20.1%

## COC(=O)CC(C1=Cc2ccccc2OC1)c1oc(C)cc(=O)c1O (centres undefined)
  cytotoxicity at 70.5 h: 19.3%

## O=C(NCC1CCOCC1)c1cc(-c2ccc3c(c2)CCO3)n[nH]1
  cytotoxicity at 70.5 h: 17.3%

## C=C(C)COc1ccc(C(CC(=O)OC)c2oc(C)cc(=O)c2O)cc1 (centres undefined)
  cytotoxicity at 70.5 h: -0.596%

## O=c1[nH]cc(Nc2ccccc2)c(=O)[nH]1
  cytotoxicity at 70.5 h: 35%

## OCc1cc2ccccc2nc1N1CCCCC1
  cytotoxicity at 70.5 h: 31.2%

## CCOc1ccc2[nH]c3c(N(C)CC4OCCO4)ncnc3c2c1
  cytotoxicity at 70.5 h: -21.1%

## CC(C)C[C@H](NC(=O)N1CCC(Cc2ccccc2)CC1)C(=O)O
  cytotoxicity at 70.5 h: -5.66%

## COc1ccc(-c2nc(C#N)c(N(C)C)o2)cc1OC
  cytotoxicity at 70.5 h: -5.52%

## CC(C)C[C@H](NC(=O)Nc1ccc(F)c(Cl)c1)C(=O)O
  cytotoxicity at 70.5 h: 6.99%

## CCN1C(=O)C(C#N)=C(C)/C(=C/C2=Cc3ccccc3OC2)C1=O
  cytotoxicity at 70.5 h: 7.28%

## COC(=O)COn1c(SC)nc2ccccc2c1=O
  cytotoxicity at 70.5 h: -9.2%

## CCS(=O)(=O)c1nnc([C@@H](N)Cc2ccccc2)o1
  cytotoxicity at 70.5 h: 16.2%

## CC(C)NC(=O)N(Cc1cc(O)nc2ccccc12)C(C)C
  cytotoxicity at 70.5 h: -7.39%

## COCCN(Cc1cc(O)nc2ccccc12)C(=O)NC(C)C
  cytotoxicity at 70.5 h: -14.7%

## CC(C)Cc1nc(OCC#N)c(C#N)c2c1CCC2
  cytotoxicity at 70.5 h: -2.63%

## COCCCN(Cc1cc(O)nc2ccccc12)C(=O)NC(C)C
  cytotoxicity at 70.5 h: -13.5%

## O=C(CC1NC(N2CCc3ccccc32)=NC1=O)Nc1ccc(Cl)cc1 (centres undefined)
  cytotoxicity at 70.5 h: -11.1%

## COc1ccc(-c2nc(C#N)c(N(C)C)o2)cc1S(=O)(=O)N(C)C
  cytotoxicity at 70.5 h: -11.8%

## O=C(CC1NC(N2CCc3ccccc32)=NC1=O)Nc1ccccc1 (centres undefined)
  cytotoxicity at 70.5 h: -5.06%

## COc1cccc(-c2nc(C)c(C(=O)N[C@H](CO)CCSC)s2)c1
  cytotoxicity at 70.5 h: -5.73%

## Cc1cc(C)n2c(CCCNS(=O)(=O)c3ccccc3)nnc2n1
  cytotoxicity at 70.5 h: -7.9%

## Cc1sc(NS(=O)(=O)c2ccccc2)nc1C(=O)NC1CC1
  cytotoxicity at 70.5 h: -1.95%

## Cc1cc(C)n2c(CCCNS(=O)(=O)c3ccc(F)cc3)nnc2n1
  cytotoxicity at 70.5 h: -8.75%

## CCc1ccc2c(C3CN(S(C)(=O)=O)C3)ncn2c1
  cytotoxicity at 70.5 h: 9.29%

## Cc1nc(-c2cnn(C)c2)nc2c1CN(C(=O)c1cccnc1)CC2
  cytotoxicity at 70.5 h: -2.03%

## Cc1nc(-c2cnn(C)c2)nc2c1CN(C(=O)c1cccn1C)CC2
  cytotoxicity at 70.5 h: 1.91%

## Cc1ncoc1C(=O)N1C[C@@H]2CN(CC3CC3)CCO[C@@H]2C1
  cytotoxicity at 70.5 h: 10.6%

## Cc1cccc(S(=O)(=O)N2CCCc3c(c(=O)n(C)n3C)C2)c1
  cytotoxicity at 70.5 h: -9.39%

## CS(=O)(=O)N1CC(c2ncn3ccccc23)C1
  cytotoxicity at 70.5 h: -9.83%

## Cc1ncsc1CN1C[C@@H]2CN(Cc3cccnc3)CCO[C@@H]2C1
  cytotoxicity at 70.5 h: -5.27%

## c1csc(CN2CCc3nc(N4CCOCC4)nc(NC4CC4)c3C2)n1
  cytotoxicity at 70.5 h: 17%

## COc1cccc(N2CC3(CCN(c4cc(OC)ncn4)C3)CC2=O)c1 (centres undefined)
  cytotoxicity at 70.5 h: 7.12%

## C1CN(c2nc3c(c(NC4CC4)n2)CN(CC2CCOC2)CC3)CCO1 (centres undefined)
  cytotoxicity at 70.5 h: -9.83%

## COc1cc(N2CC3(CCN(S(=O)(=O)C4CC4)C3)C2)ncn1
  cytotoxicity at 70.5 h: -7.2%

## Cc1ccsc1C(=O)N1CCCc2c(c(=O)n(C)n2C)C1
  cytotoxicity at 70.5 h: -11%

## Fc1ccc2c(c1)C1(CCNCC1)CC2OCC1CC1 (centres undefined)
  cytotoxicity at 70.5 h: -7.69%

## COc1cc(N2CC3(CCN(c4ncccn4)C3)C2)ncn1
  cytotoxicity at 70.5 h: -9.27%

## CN1CCCCC12CCN(c1nncs1)C2 (centres undefined)
  cytotoxicity at 70.5 h: -9.3%

## Cc1cccc(CN2C[C@@H](NC(=O)C3CCC3)[C@H]3COC[C@H]32)n1
  cytotoxicity at 70.5 h: -5.38%

## O=C(c1cscn1)N1CCCC12CCCN(S(=O)(=O)c1ccccc1)C2 (centres undefined)
  cytotoxicity at 70.5 h: -2.41%

## CCS(=O)(=O)N1CCCC2(CCCN2C(=O)c2cscn2)C1 (centres undefined)
  cytotoxicity at 70.5 h: -0.54%

## CN(Cc1ccccc1)CC1CC2(CO1)CN(Cc1cnn(C)c1)C2 (centres undefined)
  cytotoxicity at 70.5 h: -6.11%

## O=C(NC1CC1)N1Cc2[nH]nc(COCC3CC3)c2C1
  cytotoxicity at 70.5 h: -7.86%

## Fc1cccnc1N1CCC2(CNCCC2(F)F)C1 (centres undefined)
  cytotoxicity at 70.5 h: 12.5%

## Cn1nc(CN2CCCC2)c2c1CN(C(=O)c1ccc[nH]1)CC2
  cytotoxicity at 70.5 h: 11.9%

## c1cnn(Cc2nnc3n2CCCN(c2nccs2)C3)c1
  cytotoxicity at 70.5 h: 12.8%

## CN1CCN([C@@H]2CCN(C(N)=O)[C@H]2Cc2ccccc2)CC1
  cytotoxicity at 70.5 h: -0.0899%

## Cn1cncc1CN1CCC2(CC1)CCN2c1ncccn1
  cytotoxicity at 70.5 h: -2.28%

## CC1c2ncc(COCC3CCOCC3)n2CCN1C(=O)c1ccoc1 (centres undefined)
  cytotoxicity at 70.5 h: -2.87%

## c1cnc(N2CCCn3c(nnc3Cn3cccn3)C2)nc1
  cytotoxicity at 70.5 h: 1.91%

## CC(=O)N1CC[C@@H](N2CCN(C)CC2)[C@@H]1Cc1ccccc1
  cytotoxicity at 70.5 h: -2.96%

## CCn1cc2c(n1)CN(S(=O)(=O)c1ccc(C)cc1)CC2COC (centres undefined)
  cytotoxicity at 70.5 h: -1.69%

## O=C(NC1CCc2c(ccc(=O)n2CC2CC2)C1)c1ccsc1 (centres undefined)
  cytotoxicity at 70.5 h: -1.91%

## CC(=O)N1CCC2(CC1)C(=O)N(c1cccnc1)c1ccc(F)cc12
  cytotoxicity at 70.5 h: -4.87%

## CCS(=O)(=O)N1C[C@@H]2COC[C@@H](Cc3nc(C)no3)[C@@H]2C1
  cytotoxicity at 70.5 h: -2.03%

## Cn1nc(CN2CCCCC2)c2c1CN(C(=O)Nc1cccc(F)c1)C2
  cytotoxicity at 70.5 h: 11.6%

## CC(C)NC(=O)N1CCN(C(=O)c2ccco2)CC2(CC(=O)N(C)C2)C1 (centres undefined)
  cytotoxicity at 70.5 h: -23.2%

## C[C@H]1C[C@H]2CN(C(=O)c3ccncn3)CC[C@@H]2O1
  cytotoxicity at 70.5 h: -19.6%

## O=C1COC2(CCN(S(=O)(=O)C3CC3)CC2)CN1c1ccsc1
  cytotoxicity at 70.5 h: -17.5%

## COCC1COCCC12CCN(C(=O)CCc1ccccc1C)CC2 (centres undefined)
  cytotoxicity at 70.5 h: -5.26%

## CCC(C)[C@H](N)c1nnc(SCC(=O)Nc2cc(C)ccc2C)o1 (some centres undefined)
  cytotoxicity at 70.5 h: -1.84%

## CC(C)C[C@H](N)c1nnc(SCC(=O)Nc2ccc(Br)cc2)o1
  cytotoxicity at 70.5 h: -5.07%

## N[C@@H](Cc1ccccc1)c1nnc(S(=O)(=O)Cc2cccc(Cl)c2)o1
  cytotoxicity at 70.5 h: 13.5%

## CCN1CCC2(CC1)OCCN2C(=O)c1cc(Cl)c(OC)c(Cl)c1
  cytotoxicity at 70.5 h: 8.67%

## CC(C)N1CCC2(CC1)C(=O)N(c1cccnc1)c1c(F)cccc12
  cytotoxicity at 70.5 h: -2.98%

## CN(C)CCNCCC(Cc1ccccc1)C1CCOC(C)(C)C1 (centres undefined)
  cytotoxicity at 70.5 h: -8.7%

## Cc1ccc(C(CCNCCN(C)C)C2CCOC(C)(C)C2)cc1 (centres undefined)
  cytotoxicity at 70.5 h: -5.89%

## CN(C)CCCNCCC(Cc1ccccc1)C1CCOC(C)(C)C1 (centres undefined)
  cytotoxicity at 70.5 h: 1.12%

## CCN1CCO[C@@H]2CN(C(=O)c3cocn3)C[C@@H]2C1
  cytotoxicity at 70.5 h: 34.2%

## O=C(c1ccc2ccc(N3CCN(CC4CC4)CC3)n2c1)N1CCCO1
  cytotoxicity at 70.5 h: -5.05%

## O=C([C@H]1CCS(=O)(=O)[C@@H]2CN(CCc3ccccc3)C[C@H]12)N1CCCC1
  cytotoxicity at 70.5 h: -1.64%

## O=C(c1cocn1)N1C[C@@H]2CN(CC3CC3)CCO[C@@H]2C1
  cytotoxicity at 70.5 h: -1.55%

## CC(C)N1CCc2ncn(C)c2C1C(=O)N1CCOCC1 (centres undefined)
  cytotoxicity at 70.5 h: 5.22%

## CCS(=O)(=O)N1CCC2(CC1)CC1(CCN(CCOC)CC1)C(=O)N2C
  cytotoxicity at 70.5 h: -6.01%

## CCN1CCCC12CCCN(c1ncccn1)C2 (centres undefined)
  cytotoxicity at 70.5 h: -9.5%

## COc1cc(N2CC3(CCN(S(C)(=O)=O)C3)C2)ncn1
  cytotoxicity at 70.5 h: -12%

## CN1CCCCC12CCN(c1nncs1)CC2
  cytotoxicity at 70.5 h: 1.8%

## O=C(N[C@@H]1CN(Cc2cccs2)[C@@H]2COC[C@@H]21)C1CCC1
  cytotoxicity at 70.5 h: -4.79%

## CCN1C(=O)[C@H]2CN(CC(C)C)C[C@H]2C12CCN(C(=O)NC(C)C)CC2
  cytotoxicity at 70.5 h: -1.18%

## CC(C)CN1CCCC12CCN(c1nncs1)C2 (centres undefined)
  cytotoxicity at 70.5 h: -4.38%

## CCc1cnc(N2CCc3ncnc(N4CCN(C)CC4)c3CC2)nc1
  cytotoxicity at 70.5 h: -3.37%

## CCCS(=O)(=O)N1CCc2c(COCC)cncc2C1
  cytotoxicity at 70.5 h: -3.03%

## O=C(N1CCCO1)[C@]12COC[C@H]1CN(Cc1nccs1)C2
  cytotoxicity at 70.5 h: -7.21%

## Cn1ccnc1CN1CCO[C@H]2C(CNC(=O)c3ccco3)CC[C@@H]21 (some centres undefined)
  cytotoxicity at 70.5 h: -0.67%

## Cc1ncc2c(c1C(=O)O)CCN(c1ncc(F)cn1)C2
  cytotoxicity at 70.5 h: -0.54%

## CCN1CC2(CC1=O)CN(Cc1ccc(C)o1)CCN(C(=O)C(C)C)C2 (centres undefined)
  cytotoxicity at 70.5 h: -16.6%

## CN(C)C(=O)CC1CC2(CCN(Cc3ccsc3)CC2)c2ccccc21 (centres undefined)
  cytotoxicity at 70.5 h: -16.8%

## Cn1cccc1C(=O)N1C[C@@H](OCc2ccncc2)[C@@H]2OCCC[C@@H]21
  cytotoxicity at 70.5 h: -1.09%

## O=C(O)c1cc2c(nc1N1CCOCC1)CCN(C1CCOC1)CC2 (centres undefined)
  cytotoxicity at 70.5 h: -4.23%

## COc1ccc(CN2C[C@H]3CCC[C@@H](CN(C)C4CC4)[C@H]3C2)cn1
  cytotoxicity at 70.5 h: 10.8%

## CO[C@@H]1CCN(S(=O)(=O)N(C)C)[C@@H]2CN(Cc3cccnc3)C[C@@H]21
  cytotoxicity at 70.5 h: -4.13%

## Cn1nccc1-c1ncc2c(c1C(=O)O)CCN(Cc1ccncc1)C2
  cytotoxicity at 70.5 h: -0.712%

## CNC(=O)CN1CCOCC12CCN(Cc1ccncc1)CC2
  cytotoxicity at 70.5 h: -16.2%

## Cc1cccc(CN2C(=O)CO[C@@H]3CN(Cc4cnn(C)c4)C[C@H]32)c1
  cytotoxicity at 70.5 h: 4.73%

## O=C1COC2(CCN(Cc3cccnc3)CC2)CN1
  cytotoxicity at 70.5 h: 12.3%

## COc1ccc(CN2C[C@@H]3CN(Cc4cccnc4)CCO[C@@H]3C2)cc1
  cytotoxicity at 70.5 h: -9.13%

## c1cc(CN2C[C@@H]3OCCN(CCN4CCCC4)[C@@H]3C2)cs1
  cytotoxicity at 70.5 h: -8.5%

## c1cc(CN2C[C@@H]3OCCN(CCN4CCCC4)[C@@H]3C2)ccn1
  cytotoxicity at 70.5 h: -8.99%

## COc1ccc2[nH]cc(C(=O)CNc3nccs3)c2c1
  cytotoxicity at 70.5 h: 14.4%
